Entries after “also recorded” stand apart in the source; their conditions may differ.
Tests used:
Type in all cases: cell-based
AR-LBD and TIF2 = target: T1, AR-LBD and TIF2 (Homo sapiens, UniProt P10275); assay: AR-TIF2 mammalian 2-hybrid assay; details: HEK 293 cells; read-out: Inhibition DHT-induced AR-TIF2 mammalian 2 hybrid assay IC50
T1 construct: AR-LBD amino acids 658-919 expressed as a fusion protein with Gal4-DBD; expressed in transfected cells; host or cells: HEK 293, transient co-transfection
T1 sequence (P10275 658-919): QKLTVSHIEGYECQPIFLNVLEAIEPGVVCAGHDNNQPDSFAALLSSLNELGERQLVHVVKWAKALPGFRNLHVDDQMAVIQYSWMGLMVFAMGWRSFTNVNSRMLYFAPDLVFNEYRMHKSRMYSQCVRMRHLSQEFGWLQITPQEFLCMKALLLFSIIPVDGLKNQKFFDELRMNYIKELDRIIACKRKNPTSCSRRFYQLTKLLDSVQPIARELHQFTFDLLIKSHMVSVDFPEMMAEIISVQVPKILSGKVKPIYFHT
From the text: TIF2 and SRC1 Mammalian 2-Hybrid Assays: The 5×GAL4-TATA-luciferase reporter plasmid was a gift from Dr. Richard Maurer from the Oregon Health and Science University (Gonzalez et al., Cell 1989, 59:675-80), and constructs pGAL4-hAR-658-919 (AR-LBD amino acids 658-919 expressed as a fusion protein with Gal4-DBD) (Askew et al., J Biol Chem 2007, 282:25801-16), pVP16-SRC1 (full-length SRC1 expressed as a fusion with VP16 activation domain) (He et al., J Biol Chem 1999, 274:37219-25) and pVP16-Empty vectors were kindly provided to us by Dr. Elizabeth Wilson, from UNC Chapel Hill. pVP16-TIF2 was generated as described previously (Fancher et al., Assay Drug Dev Technol. 2019, 17:364-386). HEK 293 cells were transiently co-transfected with 5 ng of pGal4-AR-LBD, 10 ng of either pVP16-TIF2 or pVP16-SRC1, and 20 ng of the 5×Gal4-TATA-Luc reporter as described previously (Ibid.). HEK 293 cells were bulk co-transfected with the three plasmids that had been individually incubated with FuGENE® 6 transfection agent (Fugent LLC, Middleton, WI) at a 3:1 ratio for 25 min at room temperature (RT) in serum free media (SFM) and then combined with HEK 293 cells that were suspended in DMEM (Cellgro10013CV) with 2 mM L-glutamine (Invitrogen) that was supplemented with 10% fetal bovine serum, and 5,000 cells in a volume of 40 μL were seeded into the wells of white opaque 384-well assay plates (Greiner Bio-one, #781080) and cultured overnight at 37° C., 5% CO2, and 95% humidity. […] 25 μL of BrightGlo® reagent (Promega, Madison, WI) was added to the plate and the relative luminescence units (RLUs) were captured on a SpectraMax® M5e microtiter plate reader (Molecular Devices, LLC, San Jose, CA).

TIF2 = target: T2, TIF2 (Homo sapiens, UniProt Q15596); assay: Western blotting cellular thermal shift assay for TIF2 in C4-2 cells; details: 20 μM, TIF2 western blots
T2 construct: endogenous in cells; host or cells: C4-2 castration resistant prostate cancer cells
T2 sequence (Q15596 whole entry): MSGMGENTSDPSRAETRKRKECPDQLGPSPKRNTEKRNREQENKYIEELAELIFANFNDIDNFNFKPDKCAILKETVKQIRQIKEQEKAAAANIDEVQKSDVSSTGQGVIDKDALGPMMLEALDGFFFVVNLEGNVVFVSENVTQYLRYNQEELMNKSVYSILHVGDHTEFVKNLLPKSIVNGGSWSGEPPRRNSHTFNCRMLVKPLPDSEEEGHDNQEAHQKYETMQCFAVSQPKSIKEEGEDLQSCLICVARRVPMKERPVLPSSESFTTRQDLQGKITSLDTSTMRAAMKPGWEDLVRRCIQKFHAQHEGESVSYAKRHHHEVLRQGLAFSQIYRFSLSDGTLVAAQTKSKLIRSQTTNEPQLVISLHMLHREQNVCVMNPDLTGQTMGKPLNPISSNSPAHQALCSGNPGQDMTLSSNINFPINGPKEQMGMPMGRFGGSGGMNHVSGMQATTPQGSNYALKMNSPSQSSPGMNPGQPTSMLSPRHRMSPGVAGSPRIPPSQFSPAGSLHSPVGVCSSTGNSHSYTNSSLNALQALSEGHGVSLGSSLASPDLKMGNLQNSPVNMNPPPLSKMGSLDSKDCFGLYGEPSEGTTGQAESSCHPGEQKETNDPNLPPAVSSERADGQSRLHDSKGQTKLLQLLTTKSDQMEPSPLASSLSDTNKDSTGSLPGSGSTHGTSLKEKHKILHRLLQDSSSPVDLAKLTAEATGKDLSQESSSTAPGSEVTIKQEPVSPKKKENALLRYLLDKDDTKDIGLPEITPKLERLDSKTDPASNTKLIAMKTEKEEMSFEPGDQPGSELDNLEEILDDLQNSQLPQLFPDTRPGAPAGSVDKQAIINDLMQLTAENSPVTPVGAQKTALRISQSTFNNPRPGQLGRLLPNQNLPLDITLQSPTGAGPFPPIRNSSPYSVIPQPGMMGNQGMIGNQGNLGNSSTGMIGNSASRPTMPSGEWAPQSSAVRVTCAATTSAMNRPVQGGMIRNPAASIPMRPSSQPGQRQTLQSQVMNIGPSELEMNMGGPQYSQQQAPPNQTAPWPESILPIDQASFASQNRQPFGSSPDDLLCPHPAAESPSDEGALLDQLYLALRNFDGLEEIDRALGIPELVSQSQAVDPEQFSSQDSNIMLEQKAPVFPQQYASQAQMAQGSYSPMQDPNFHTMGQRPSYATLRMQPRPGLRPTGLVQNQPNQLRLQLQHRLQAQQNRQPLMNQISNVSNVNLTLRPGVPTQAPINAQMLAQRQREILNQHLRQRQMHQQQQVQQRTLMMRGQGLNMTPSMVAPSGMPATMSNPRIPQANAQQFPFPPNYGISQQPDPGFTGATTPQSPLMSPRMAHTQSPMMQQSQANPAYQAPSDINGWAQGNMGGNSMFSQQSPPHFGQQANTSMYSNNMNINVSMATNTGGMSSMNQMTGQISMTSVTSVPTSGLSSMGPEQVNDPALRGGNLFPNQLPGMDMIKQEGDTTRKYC
Procedure: Western Blotting Cellular Thermal Shift Assays for TIF2 and AR Target Engagement in C4-2 Cells: C4-2 cells were harvested by trypsinization, washed 1× by centrifugation at 270×g for 5 min and resuspension in PBS, counted, centrifugated at 270× g for 5 min and resuspended at 7×10^6 cells per mL in Opti-MEM medium (Gibco, Gaithersburg, MD). 50 μL of C4-2 cell suspension (3.5×10^5 cells) were then transferred to PCR tubes that were placed in a T-100 thermocycler (BioRad, Hercules, CA) and a 2° C. interval temperature step gradient from 37° C. to 53° C. was applied. Cells were maintained at each step of the temperature gradient for 5 min and then tubes were withdrawn and placed on ice. 50 μL of cell lysis buffer, 500 mM NaCl, 1% NP-40, 1× protease inhibitor cocktail in PBS were added to the heat shocked cell suspensions in PCR tubes and placed on ice for an additional 30 min. Cell lysates were then centrifuged at 14,000 RPM (18,800×g) at 4° C. for 15 min and supernatants were transferred to new tubes and protein concentrations were determined in a bicinchoninic acid (BCA) assay. 45 μL of cell lysis supernatants were mixed with 15 μL of 5×SDS-PAGE sample buffer and placed in a heat block at 100° C. for 5 min. The protein constituents of heat shocked C4-2 cell lysis supernatants were separated by SDS-PAGE on 8% separating gels, transferred to nitrocellulose membranes that were blocked for 1 h at room temperature in 5% non-fat milk in TBST, and then probed overnight at 4° C. with a 1:1000 dilution of either rabbit anti-AR (Cell Signaling, Danvers, MA) or rabbit anti-TIF2 (Bethyl Laboratories, Waltham, MA) primary antibodies in TBST containing 5% non-fat milk. Membranes were then washed 3× in TBST buffer for 10 min, then incubated with a 1:10,000 dilution of the goat anti-rabbit IgG HRP conjugated secondary antibody (Invitrogen, Carlsbad, CA) in TBST containing 5% non-fat milk for 1 h at room temperature. Western blots were then washed 3× in TBST buffer and developed with Pierce ECL western blotting substrate. Images of ECL western blots were acquired on an iBright™ 1500 imaging system and quantified using the iBright™ image analysis software.

[1] = system: PSA secretion in C4-2 conditioned media; assay: Dot blot of PSA secretion by C4-2 cells; details: C4-2 cells, 20 μM 3 h, ±10 nM DHT 24 h
Procedure: To determine PSA secretion levels, C4-2 cells were seeded at 1.4×10^5 cells/well in 12-well plates and treated as described above for PSA cell expression experiments. […] 500 μL of conditioned media supernatant was added to the wells of 96-well to Bio-blot apparatus (BioRad, Hercules, CA) containing a nitrocellulose membrane and was allowed to pass through and attach to the membrane under gravity for 3-4 h at room temperature. The membrane was washed 1× with 500 μL TBS under vacuum, blocked with 1% BSA in TBST for 1 h, and then incubated overnight at 4° C. with the primary rabbit anti-hPSA antibody (Cell Signaling, Danvers, MA) diluted 1:1000 in TBST plus 1% BSA. Dot blots were washed 3× in 10 mL of TBST for 10 min, then incubated for 1 h with secondary goat anti-rabbit-IgG HRP conjugated antibody (Invitrogen, Carlsbad, CA) diluted 1:10,000 in TBST plus 1% Bovine Serum Albumin (BSA), washed 3× with […] of TBST for 10 min, and then developed with Pierce ECL western blotting substrate. Images of ECL dot blots were acquired on an iBright™ 1500 imaging system and quantified by iBright™ image analysis software (ThermoFisher Scientific, Waltham, MA).

With `Cc1nsc(NC(=O)N2CCC(Sc3ccccc3C)CC2)n1` [Compound S2-6] the IC50 (AR-LBD and TIF2) was 50 nM, the “TIF2 thermal stability at 46° C.” value (TIF2) was “did not enhance TIF2 thermal stability; also recorded: do not enhance TIF2 thermal stability” and the “TIF2 thermal stability at 46° C.” value (TIF2; listed as 6) was “did not enhance TIF2 stability”. For the same molecule, the “Endogenous and DHT-enhanced PSA secretion” value [1] was “substantially reduced; also recorded: inhibition”.
`Cc1ccccc1-c1cc(O)c2c(c1)CN(c1nc(C(N)=O)cs1)CCO2` [Compound S1-1] was tested, and the IC50 (AR-LBD and TIF2) was 910 nM, the “TIF2 thermal stability at 46° C.” value (TIF2) was “did not enhance TIF2 thermal stability; also recorded: do not enhance TIF2 thermal stability” and the “Endogenous and DHT-enhanced PSA secretion” value [1] was “substantially reduced; also recorded: inhibition”.
With `Cc1c(-c2ccccc2F)[nH]c2ccc(CNC(=O)CCc3cn[nH]c3)cc12` [Compound S3-11] the IC50 (AR-LBD and TIF2) was 890 nM, the “TIF2 thermal stability at 46° C.” value (TIF2) was “did not enhance TIF2 thermal stability; also recorded: do not enhance TIF2 thermal stability” and the “Endogenous and DHT-enhanced PSA secretion” value [1] was “substantially reduced; also recorded: inhibition”.

— US20260083751A1, “ALLOSTERIC MODULATORS OF ANDROGEN RECEPTOR COACTIVATOR RECRUITMENT FOR CRPC THERAPY” (University of Pittsburgh – Of the Commonwealth System of …, priority 2022, published 2026)
